Drawing on patent US20240245679A1, “AGENT FOR TREATING INFECTIOUS DISEASES AGAINST MUTANT VIRUSES OF NOVEL CORONAVIRUS” (FUJIFILM TOYAMA CHEMICAL CO., LTD., priority 2021, published 2024), this text covers EC90 for 1 compound.

What all share (experiment): microbe, parasite or virus in culture
Type in all cases: cell-based, SARS-COV-2

Experiment [1] deals with USA_WA1/2020 (A line). The following applies: Severe acute respiratory syndrome coronavirus 2, Vero 76, read-out: EC90 value (90% effective concentration).
Experiment [2] has as its system hCoV-19/England/204820464/2020 (B.1.1.7 line). The following applies: Severe acute respiratory syndrome coronavirus 2, Vero 76, read-out: EC90 value (90% effective concentration).
For experiment [3], the system named is hCoV-19/Japan/TY7-503/2021 (P.1 line). The following applies: Severe acute respiratory syndrome coronavirus 2, Vero 76, read-out: EC90 value (90% effective concentration).
In experiment [4] the test system is hCoV-19/Japan/TY2-312-P1/2020 (B.1.1 line).
In experiment [5] the test system is hCoV-19/Japan/QK002/2020 (B.1.1.7 line). The following applies: Severe acute respiratory syndrome coronavirus 2, VeroE6/TMPRSS2; 40 hours.
Experiment [6] deals with hCoV-19/Japan/TY8-612/2021 (B.1.351 line). The following applies: Severe acute respiratory syndrome coronavirus 2, VeroE6/TMPRSS2; 40 hours.
For experiment [7], the system named is hCoV-19/Japan/TY7-501/2021 (P.1 line). The note with it: Severe acute respiratory syndrome coronavirus 2, VeroE6/TMPRSS2; 40 hours.
For experiment [8], the system named is hCoV-19/Japan/TY11-927-P1/2021 (B.1.617 line). The note with it: Severe acute respiratory syndrome coronavirus 2, VeroE6/TMPRSS2; 40 hours.
Experiment [9] relates to hCoV-19/Japan/TY11-330-P1/2021 (B.1.617.1 line). The note with it: Severe acute respiratory syndrome coronavirus 2, VeroE6/TMPRSS2; 40 hours.
Experiment [10] concerns SARS-2 WA1/2020. The note with it: Severe acute respiratory syndrome coronavirus 2, Vero C1008; 72 hours.
Experiment [11] deals with SARS-2-9017 (delta). The following applies: Severe acute respiratory syndrome coronavirus 2, Vero C1008; 72 hours.
Experiment [12] deals with SARS-2 Omicron. The note with it: Severe acute respiratory syndrome coronavirus 2, Vero C1008; 72 hours.

For `NC(=O)c1nc(F)cnc1O` [Compound A, 6-fluoro-3-hydroxy-2-pyrazinecarboxamide], the EC90 came to 68 µM in experiment [1]; 83 µM in experiment [2]; 190 µM in experiment [3]; 466 µM in experiment [4] (40 hours); 302 µM in experiment [4] (Severe acute respiratory syndrome coronavirus 2, VeroE6/TMPRSS2, 40 h); 359 µM in [5]. Besides, the EC90 in experiment [6] was 223 µM; in experiment [7] it was 306 µM; in [8], 294 µM; in experiment [9], 491 µM; in experiment [10] it was 125 to 250 µM; in experiment [11], 125 to 250 µM. Also, the EC90 in [12] was 62.5 to 125 µM.
